Blank lines part the entries; values can stand above or below the compound they belong to.
How the values were obtained:
thymidylate synthase = settings: role: inhibitor; cited from earlier work
actinic keratoses [1] = assay: Split-area topical treatment of actinic keratoses on scalp of person (Example 1); format: in vivo, human
Experimental: In one experiment a person with an actinic keratoses region on their scalp was treated with 5% 5-fluorouracil cream once daily for 30 days (as marked in FIG. 1, posterior region). Another area of actinic keratoses on their scalp (As marked on FIG. 1, anterior region) was treated with both 5% 5-fluorouracil cream once daily and 0.5% theobromine solution once daily for 30 days. The 5% 5-FU cream applied was a medically available cream from Mylan, commercially known as Efudix® cream. The theobromine solution was prepared in 25% ethanol and 50% glycerol, adjusted to pH 8 via 100 mM sodium hydrogen carbonate solution. Efudix® was stored as per manufacturer's instructions, at room temperature, and theobromine solution at room temperature in the dark. In application, 50-100 μL (1-2 drops) of theobromine solution was applied first in a thin water-based layer over the whole treated area evenly. 5-FU was applied 10-20 minutes later, via finger application, as per best practice and manufacturer's instructions. One fingertip unit (~0.5 g) was used for an equivalent of half the forehead area.
(§1) Redness and inflammation were assessed by the responsible physician.

[2] = topical; percent of patients; cited from earlier work
basal cell carcinomas [3] = assay: Topical treatment of basal cell carcinomas in person (Example 4); format: in vivo, human; settings: one month after completing 1 month once daily treatment; 5% 5-FU with (2 lesions) or without (1 lesion) 0.5% theobromine
Experimental: In another example, a person with multiple basal cell carcinomas was treated with: 5% 5-fluorouracil (5-FU) cream alone (1 lesion, back, clinical diagnosis) or a combination of 5-FU cream and theobromine solution (2 lesions-biopsy confirmed basal cell carcinoma, right leg and basal cell carcinoma, left forearm, clinical diagnosis). The treatment was continued once daily for 1 month and 0.5% percent theobromine solution. In application, 50-100 μL (1-2 drops) of theobromine solution was applied in a thin water-based layer over the whole treated area evenly (up to 50 cm2 area in total). 5-FU was applied via finger application, as per best practice and manufacturer's instructions. One finger tip unit (0.5 g) was used to cover 1 lesion. 5FU was applied 30 min after theobromine. One month after completing treatment the patient was examined by a dermatologist. The lesions treated with 5FU and theobromine resolved and the lesion treated with 5FU persisted.

actinic keratoses [4] = settings: topical; cited from earlier work
basal cell carcinomas [5] = settings: topical; cited from earlier work
actinic keratoses [6] = assay: Split-scalp topical treatment of actinic keratoses in person (Example 2); format: in vivo, human
Experimental: Quantification is as described for Patient #2 in Table 1;
In another experiment a person with an actinic keratoses on their scalp was treated with 5% 5-fluorouracil cream 4× per week for 4 weeks (15 lesions, as marked in FIG. 2, left side of scalp). Another area of actinic keratoses on their scalp (16 lesions, as marked on FIG. 2, right side of scalp) was treated with both 5% 5-fluorouracil cream 4× per week and 0.5% theobromine solution 4× per week for 4 weeks. The 5% 5-FU cream applied was a medically available cream from Mylan, commercially known as Efudix® cream. The theobromine solution was prepared in 25% ethanol and 50% glycerol, adjusted to pH 8 via 100 mM sodium hydrogen carbonate solution. Efudix® was stored as per manufacturer's instructions, at room temperature, and theobromine solution at room temperature in the dark. In application, 50-100 μL (1-2 drops) of theobromine solution was applied first in a thin water-based layer over the whole treated area evenly. 5-FU was applied 10-20 minutes later, via finger application, as per best practice and manufacturer's instructions. One fingertip unit (~0.5 g) was used for an equivalent of half the forehead area.
as §1

AK lesion = assay: Split-scalp treatment of actinic keratoses with 5FU plus methylxanthine versus 5FU alone (Example 3); format: in vivo, human; settings: for AK lesion clearance / efficacy versus 5FU alone control: 0.5% w/v methylxanthine in combination with Efudix 5% 5FU
Experimental: P values below 0.05, denoting significance, are as marked.
Results are shown per individual patient.
All patients were treated solely on the scalp and were only treated on half of the scalp with the test compound and 5FU, while the other half was used as control, treated with 5FU alone. Separation between combination and 5FU only control was mostly done medially, with one patient having and anterior/posterior treatment setup. As in Example 2, the patients self-administered the test compound on the test region 10-20 minutes before applying the Efudix® cream containing 5% w/v 5FU. In application, 50-100 μL (1-2 drops) of the test compound solution was applied first in a thin water-based layer over the whole treated area evenly. 5-FU was applied 10-20 minutes later, via finger application, as per best practice and manufacturer's instructions. Patients applied the regimen at regular intervals, once daily. One fingertip unit (~0.5 g) was used for an equivalent of half the scalp area.

ATR = settings: role: inhibitor; physiologically and clinically achievable conditions; cited from earlier work
ATM = settings: role: inhibitor; physiologically and clinically achievable conditions; cited from earlier work
PARP = settings: role: inhibitor; physiologically and clinically achievable conditions; cited from earlier work
actinic keratoses [7] = assay: Topical theobromine alone on actinic keratoses on nose of person (Example 10, comparative); format: in vivo, human
Experimental: (§2) In another experiment a person with an area of actinic keratoses on their nose was treated with 0.5% theobromine solution once daily for 4 weeks. The theobromine solution was prepared in 25% ethanol and 50% glycerol, adjusted to pH 8 via 100 mM sodium hydrogen carbonate solution. Theobromine solution was stored at room temperature in the dark. In application, 50-100 μL (1-2 drops) of theobromine solution was applied first in a thin water-based layer over the whole treated area evenly.
(§3) The patient reported no discomfort with treatment: pain and soreness were reported by the patient to be 0/10 in areas treated with theobromine treatment.

[8] = cited from earlier work
basal cell carcinoma [9] = assay: Topical theobromine alone on basal cell carcinoma in person (Example 7, comparative); format: in vivo, human; settings: 0.5% theobromine solution once daily for 2 months
Experimental: (§4) In another example a person with a clinical diagnosis of basal cell carcinoma was treated with 0.5% percent theobromine solution. In application, 50-100 μL (1-2 drops) of theobromine solution was applied in a thin water-based layer over the whole treated area evenly (up to 50 cm 2 area in total). Theobromine was applied once daily for 2 months. At the end of the treatment, they were examined by a dermatologist.

basal cell carcinoma [10] = assay: Topical theobromine alone on basal cell carcinoma in person (Example 8, comparative); format: in vivo, human; settings: 0.5% theobromine solution once daily for 1 month
Experimental: as §4, with “for 1” for “for 2”, “months. The patient was” for “months. At the end of the treatment, they were”, “a dermatologist before the treatment and one week after completion of the treatment.” for “a dermatologist.”

actinic keratoses [11] = assay: Topical theobromine alone on actinic keratoses on scalp of person (Example 9, comparative); format: in vivo, human
Experimental: as §2, with “scalp” for “nose”
as §3

[12] = four weeks after completion of treatment
[13] = 0.5% theobromine solution once daily for 4 weeks

pain and soreness reported by the patient (actinic keratoses [1]; after 30 days of once daily treatment, 5% 5-FU cream with or without 0.5% theobromine solution): 9 /10
redness, soreness and inflammation assessed by physician (actinic keratoses [1]; after 30 days of treatment): became inflamed
discomfort reported by the patient (actinic keratoses [1]; during 30 days of treatment): significant discomfort
pain reported by the patient (actinic keratoses [1]; [12]): no pain reported by the patient
redness, soreness and inflammation assessed by physician (actinic keratoses [6]; after 4 weeks of treatment): became inflamed
pain and soreness reported by the patient (actinic keratoses [6]; after 4 weeks, 4x per week, 5% 5-FU cream with or without 0.5% theobromine solution): 2 /10
discomfort reported by the patient (actinic keratoses [6]; during 4 weeks of treatment): mild discomfort
pain reported by the patient (actinic keratoses [6]; [12]): no pain reported by the patient
Structure (SMILES): O=c1[nH]cc(F)c(=O)[nH]1 [5-FU, 5-fluorouracil]
inhibition of thymidylate synthase (thymidylate synthase): inhibitor of thymidylate synthase
inflammation and scaliness of treated area (actinic keratoses [1]; a week following cessation of treatment): significant inflammation and scaly appearance
clearance of the actinic keratosis lesion (actinic keratoses [1]; [12]): incomplete clearance
residual inflammatory reaction (actinic keratoses [1]; [12]): no visible residual inflammatory reaction
reduction in size of actinic keratosis lesion (actinic keratoses [1]; four weeks after completion of treatment, ImageJ image analysis): over 30%
patients with painful, severe inflammatory reaction [2]: 20-50%
basal cell carcinoma lesion outcome (basal cell carcinomas [3]): persisted
efficacy for actinic keratoses (actinic keratoses [4]): 50-60%
efficacy for basal cell carcinomas (basal cell carcinomas [5]): 60-70%
clearance of the actinic keratosis lesions (actinic keratoses [6]; [12]): incomplete clearance
residual inflammatory reaction (actinic keratoses [6]; [12]): no visible residual inflammatory reaction
actinic keratosis lesion count after treatment (actinic keratoses [6]; four weeks after completion, starting count 15 (5-FU alone), 16 (combination)): 14 lesions

Structure (SMILES): Cn1c(=O)c2c(ncn2C)n(C)c1=O [caffeine]
AK lesion clearance / efficacy versus 5FU alone control (AK lesion): decreased efficacy
trend in efficacy per patient (AK lesion; 0.5% w/v methylxanthine with 5FU versus 5FU alone baseline): neither caffeine not theophylline showed any positive trends

Structure (SMILES): CC(C)Cn1cnc2c(N)nc3ccccc3c21 [imiquimod]
patients with painful, severe inflammatory reaction [2]: 20-50%
efficacy for actinic keratoses (actinic keratoses [4]): 50-60%
efficacy for basal cell carcinomas (basal cell carcinomas [5]): 70-80%

pain and soreness reported by the patient (actinic keratoses [7]; [13]): 0 /10
discomfort reported by the patient (actinic keratoses [7]; after 4 weeks of treatment): no discomfort
redness or inflammation (actinic keratoses [7]; after 4 weeks of treatment): no redness or inflammation detected
inflammation or pain (basal cell carcinoma [9]): No evidence of inflammation or pain
inflammation or pain (basal cell carcinoma [10]): No evidence of inflammation or pain
pain and soreness reported by the patient (actinic keratoses [11]; [13]): 0 /10
discomfort reported by the patient (actinic keratoses [11]; after 4 weeks of treatment): no discomfort
redness or inflammation (actinic keratoses [11]; after 4 weeks of treatment): no redness or inflammation detected
Structure (SMILES): Cn1cnc2c1c(=O)[nH]c(=O)n2C [theobromine]
inhibitory activity against ATR (ATR): triple inhibitory activity (against ATM, ATR and PARP)
inhibitory activity against ATM (ATM): triple inhibitory activity (against ATM, ATR and PARP)
inhibitory activity against PARP (PARP): triple inhibitory activity (against ATM, ATR and PARP)
reduction in number of actinic keratoses (actinic keratoses [7]; 1 week after completion of 4 weeks treatment): No reduction in a number of actinic keratoses
solubility [8]: limited solubility
basal cell carcinoma outcome (basal cell carcinoma [9]): basal cell carcinoma persisted
change in lesion appearance (basal cell carcinoma [9]): no change in the lesion appearance
AK lesion clearance / efficacy versus 5FU alone control (AK lesion): significantly improved AK lesion clearance
change in lesion size or appearance (basal cell carcinoma [10]): no change in the lesion size or appearance
basal cell carcinoma outcome (basal cell carcinoma [10]; one week after completion): basal cell carcinoma persisted
reduction in number of actinic keratoses (actinic keratoses [11]; [13]): No reduction in a number of actinic keratoses
